This passage reports Ki results from patent US20080306116A1, “ARYLOXAZOLE, ARYLOXADIAZOLE AND BENZIMIDAZOLE DERIVATIVES” (priority 2007, published 2008).

A word on the Ki: it is the equilibrium dissociation constant of an inhibitor or competing ligand from its target.

This experiment has as its target T1, human subtype 5 somatostatin receptor (Homo sapiens, UniProt P35346).
T1 construct: host or cells: CHO cell line, stably transfected; membranes used
The experiment is described as follows: radioligand replacement (binding) assay, membranes of CHO cells expressing human SSTR5, 125I-labeled 11-Tyr somatostatin-14 tracer. Conditions: CHO cell membranes, 0.05 nM 125I-labeled 11-Tyr somatostatin-14, 1 h at rt; Ki calculated from IC50 by Cheng-Prussoff equation; read-out: hSSTR5 Ki. On the procedure: A CHO cell line stably transfected with a plasmid encoding the human subtype 5 somatostatin receptor (GenBank accession number D16827) was obtained from Euroscreen. Cells were cultured and used for binding and functional assays.
Membranes of these cells were prepared by sonication in the presence of protease inhibitors and subsequent fractionating centrifugation. The protein concentration in the membrane preparation was determined using a commercial kit (BCA kit, Pierce, USA). Membranes were stored at −80° C. until use. After thawing membranes were diluted in assay buffer (50 mM Tris-HCl at pH 7.4, 5 mM MgCl2 and 0.20% BSA) and subjected to dounce homogenization.
For binding studies, 0.1 mL membrane suspension, corresponding to approximately 6×10^−15 mol receptor, was incubated for 1 h at rt with 0.05 nM ^125I-labeled tracer (11-Tyr somatostatin-14, Perkin-Elmer) and either test compound in varying concentrations or, for the determination of non-specific binding, 0.001 mM non-labeled somatostatin-14. The incubation was stopped by filtration through GF/B glassfiber filters and washing with ice-cold wash buffer (50 mM Tris-HCl at pH 7.4). The bound radioactivity was measured after application of a scintillation cocktail (Microscint 40) and expressed as disintegrations per minute (dpm).
The receptor concentration was determined in a prior saturation experiment where a fixed, arbitrary amount of membranes was incubated with a concentration range of radio-labeled tracer. This allows estimating the total number of specific binding sites per amount of protein (i.e., Bmax), typically between 1 and 5 pmol/mg.
The concentration of the test compound required to result in half maximal inhibition of binding of the radio-labeled tracer (IC50) was estimated from a concentration-versus-dpm graph. The binding affinity (Ki) was calculated from the IC50 by applying the Cheng-Prussoff equation for single binding sites.

T1 sequence (P35346 whole entry): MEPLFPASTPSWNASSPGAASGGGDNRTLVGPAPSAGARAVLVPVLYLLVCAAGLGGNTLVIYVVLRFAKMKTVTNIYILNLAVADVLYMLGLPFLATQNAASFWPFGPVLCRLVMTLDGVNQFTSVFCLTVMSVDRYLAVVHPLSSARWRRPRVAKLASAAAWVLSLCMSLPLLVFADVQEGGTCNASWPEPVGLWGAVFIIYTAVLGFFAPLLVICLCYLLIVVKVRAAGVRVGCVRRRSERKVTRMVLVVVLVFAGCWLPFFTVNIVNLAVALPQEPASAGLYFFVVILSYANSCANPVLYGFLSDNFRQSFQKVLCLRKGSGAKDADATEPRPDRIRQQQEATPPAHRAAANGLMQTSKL

`CCOc1cc(CN2CCC(Nc3ncc(-c4ccccc4)o3)CC2)cc(OCC)c1-c1ccc(F)cc1` [Example 33, [1-(2,6-Diethoxy-4′-fluoro-biphenyl-4-ylmethyl)-piperidin-4-yl]-(5-phenyl-oxazol-2-yl)-amine]: the inhibition constant Ki is 28 nM.

On to `CCOc1cc(CN2CCC(Nc3ncc(-c4ccc(OC)cc4)o3)CC2)cc(OCC)c1-c1ccc(F)cc1` [Example 40, [1-(2,6-Diethoxy-4′-fluoro-bipehenyl-4-ylmethyl)-piperidin-4-yl]-[5-(4-methoxy-phenyl)-oxazol-2-yl]-amine], for which the Ki was 46 nM.

For the compound `CCOc1cc(CN2CCC(Nc3nc(-c4cccc(OC)c4)co3)CC2)cc(OCC)c1-c1ccc(F)cc1` [Example 15, [1-(2,6-Diethoxy-4′-fluoro-biphenyl-4-ylmethyl)-piperidin-4-yl]-[4-(3-methoxy-phenyl)-oxazol-2-yl]-amine], the Ki was 48 nM.

As for `CCOc1cc(CN2CCC(Nc3nc(-c4ccccc4)no3)CC2)ccc1Cl` [Example 2, [1-(4-Chloro-3-ethoxy-benzyl)-piperidin-4-yl]-(3-phenyl-[1,2,4]oxadiazol-5-yl)-amine], the Ki is 91 nM.

As to `COc1ccc(CN2CCC(Nc3nc(-c4ccccc4)no3)CC2)cc1OCC(C)C` [Example 5, [1-(3-Isobutoxy-4-methoxy-benzyl)piperidin-4-yl]-(3-phenyl-[1,2,4]oxadiazol-5-yl)-amine], the Ki was 116 nM.

`CCOc1cc(CN2CCC(Nc3ncc(-c4ccccc4)o3)CC2)cc(OCC)c1C` [Example 46, [1-(3,5-Diethoxy-4-methyl-benzyl)-piperidin-4-yl]-(5-phenyl-oxazol-2-yl)-amine]: the Ki was 12 nM.

As to `CCOc1cc(CN2CCC(Nc3nc(-c4ccccc4)no3)CC2)cc2c1OC(C)(C)C=C2` [Example 7, [1-(8-Ethoxy-2,2-dimethyl-2H-chromen-6-ylmethyl)-piperidin-4-yl]-(3-phenyl-[1,2,4]oxadiazol-5-yl)-amine], the inhibition constant (Ki) is 449 nM.

Turning to `CCOc1cc(CN2CCC(Nc3nc(-c4ccc(F)cc4)co3)CC2)cc(OCC)c1F` [Example 19, [1-(3,5-Diethoxy-fluoro-benzyl)-piperidin-4yl]-[4-(4-fluoro-phenyl)-oxazol-2-yl]-amine], the Ki was 26 nM.

As for `CCOc1cc(CN2CCC(Nc3nc4ccccc4n3C)CC2)ccc1Cl` [Example 11, [1-(4-Chloro-3-ethoxy-benzyl)-piperidin-4-yl]-(1-methyl-1H-benzoimidazol-2-yl)-amine], the Ki is 42 nM.

In the case of `CCOc1cc(CN2CCC(Nc3nc(-c4ccccc4)co3)CC2)cc(OCC)c1-c1ccc(F)cc1` [Example 24], the Ki was 27 nM.

Consider `CCOc1cc(CN2CCC(Nc3nc(-c4ccc(C(F)(F)F)cc4)co3)CC2)cc(OCC)c1-c1ccc(F)cc1` [Example 49], for which the Ki was 73 nM.

With `CCOc1cc(CN2CCC(Nc3nc(-c4ccccc4)no3)CC2)cc(OCC)c1N` [Example 9, [1-(4-Amino-3,5-diethoxy-benzyl)-piperidin-4-yl]-(3-phenyl-[1,2,4]oxadiazol-5-yl)-amine], the Ki is 41 nM.

In the case of `CCOc1cc(CN2CCC(Nc3nc(-c4ccccc4)no3)CC2)ccc1C` [Example 1, [1-(3-Ethoxy-4-methyl-benzyl)-piperidin-4-yl]-(3-phenyl-[1,2,4]oxadiazol-5-yl)-amine], the Ki was 74 nM.

Take `CCOc1cc(CN2CCC(Nc3nc(-c4ccc(Cl)cc4)co3)CC2)cc(OCC)c1Cl` [Example 27, [1-(4-Chloro-3,5-diethoxy-benzyl)-piperidin-4-yl]-[4(4-chloro-phenyl)oxazol-2-yl]-amine]: the Ki was 8 nM.

As to `CCOc1cc(CN2CCC(Nc3ncc(-c4ccccc4)o3)CC2)cc(OCC)c1Cl` [Example 37, [1-(4-Chloro-3,5-diethoxy-benzyl)-piperidin-4-yl]-(5-phenyl-oxazol-2-yl)amine], the inhibition constant (Ki) is 12 nM.

Regarding `CC(C)Oc1cc(CN2CCC(Nc3nc4ccccc4n3C)CC2)cc(OC(C)C)c1` [Example 13, [1-(3,5-Diisopropoxy-benzyl)-piperidin-4-yl]-(1-methyl-1H-benzoimidazol-2-yl)-amine], the Ki was 35 nM.
